Laboratory results taken from patent publication US11357748B2, “Methods for treating mendelian disorders of the epigenetic machinery” (THE JOHNS HOPKINS UNIVERSITY, priority 2014, dated 2022).

Tested on: H3K4me3 in the dentate gyrus GCL
Experiment: Immunofluorescence of H3K4me3 in the dentate gyrus GCL after oral AR-42
Format: in vivo, mouse
Details: 25 mg/kg/day oral, two weeks, from 20 weeks of age; vs untreated; FIG. 24A, 24B
From the text: Kmt2d^+/βGeo mice, also named Mll2Gt^(RRt024) Byg, were acquired from Bay Genomics (University of California). All experimental mice were on a mixed C57BL/6J and 129/SvEv background. Expected Mendelian ratios were observed when heterozygous animals were bred to wild-type. In heterozygous crosses, however, there was uniform embryonic lethality of homozygotes by ED 12, the earliest developmental stage assayed. For treatment with AR-42, mice were orally gavaged daily with drug (Selleck Chemicals, Houston, Tex.) solubilized in vehicle (0.5% methylcellulose, 0.1% Tween-80, water) or with vehicle alone. Drug delivery information was kindly provided by Drs. […] For quantification of DCX positive cells, doses of 0, 5, 10 and 25 mg/kg/day were used. […] Maxillary protrusion was evaluated by ten investigators blinded to genotype and they were asked to rate maxillary protrusion on radiographs as either large (2) or small (1). […]
Z-stack images of slides were taken at either 10× using Zeiss Axiovert 200 with 510-Meta confocal module (Carl Zeiss, Jena, GER) or 25× using Zeiss AxioExaminer with 710NLO-Meta multiphoton (Carl Zeiss, Jena, GER). From 10× pictures, the GCL was highlighted and fluorescent intensities for both DAPI and H3K4me3 were measured at the midpoint of the entire z-stack (Zen software, Carl Zeiss, Jena, GER) with the value for Kmt2d^+/+ animals set equal to one. […]

CC(C)[C@H](C(=O)Nc1ccc(C(=O)NO)cc1)c1ccccc1 [AR-42, (S)—N-hydroxy-4-(3-methyl-2-phenylbutanamido)benzamide]
H3K4me3 in the GCL: increased H3K4 trimethylation
